Data: patent US3975529A, “Diebenzo(B,E)thiepines” (Roussel-UCLAF, priority 1974, dated 1976)
Counter-ions that a name gives are not always drawn. Like-named read-outs stand apart in the source and are kept apart here.

Key:
[1] = system: trembling and peripherical cholinergic manifestations provoked by tremorine; experiment: Antitremorine activity (ED50); assay type: in vivo; settings: mice; for ED50: Mus musculus, ip, i.p. aqueous solution, tremorine 20 mg/kg i.p. half an hour after
Procedure: The antagonism of the test compounds to the trembling and peripherical cholinergic manifestations provoked by tremorine [Everett et al, Science, Vol. 124 (1956), p. 79] was studied on mice.
The product of Example 1 in aqueous solution was intraperitoneally administered at doses of 0.5, 1,2 and 5 mg/kg to groups of 10 mice and the mice received an intraperitoneal injection of 20 mg/kg of tremorine half an hour after the test product. The reactions (trembling, salivation, lacrymation) of the animals were observed 10, 20, 30 and 60 minutes after the tremorine injection. At the height of the activity, the 50% efficacy dose (ED50) in which 50% of the animals were protected from the trembling and peripheral parasympathomimetic reactions of salivation and lacrymation normally provoked by tremorine injection were determined.

[2] = system: trembling and peripherial cholinergic manifestations provoked by oxotremorine; experiment: Antioxotremorine activity: antagonism to the trembling and peripherial cholinergic manifestations (Table II); assay type: in vivo, mice
Procedure: The antagonism of the test products to the trembling and peripherial cholinergic manifestations provoked by oxotremorine [Cho et al, J. Biochem. Biophys. Res. Commun., Vol. 5, (196l) p. 276] was studied on mice. The product of Example 1 was administered subcutaneously in aqueous solution at doses of 50 and 100 mg/kg to groups of 10 mice and the products of Example 2 were subcutaneously administered in sesame oil solution at doses of 200 and 400 mg/kg to groups of 10 mice. Control animals received no vehicle. The mice then received a single intraperitoneal dose of 0.5 mg/kg of oxotremorine either 4 hours, 1 day, 2, 3, 4 or 7 days after the injection of the test product. The reaction of the animals as in Table I were recorded 5,10 and 15 minutes after the injection of oxotremorine and the percent of inhibition of the different reactions, at the height of the effect, after the oxotremorine injection was determined as a function of time.

[3] = system: antinociceptive activity of oxotremorine; experiment: Antagonism of antinociceptive activity of oxotremorine, hot plate (Table III); assay type: in vivo, mice
Procedure: The antinociceptive activity of oxotremorine [Leslie, J. Pharm. Pharmae., Vol. 2 (1969), p. 248-50] was determined on mice using the hot plate method of Eddy et al [J. Pharmacol. Vol. 107 (1953), p. 385] in the presence and absence of the test product presumed to be antagonistic. The product of Example 1 was administered subcutaneously in aqueous solution at doses of 50 and 100 mg/kg to groups of 10 mice and the products of Examples 2 to 5 were subcutaneously administered in sesame oil solution at doses of 200 and 400 mg/kg to groups of 10 mice. The mice then received a single intraperitoneal injection of 0.5 mg/kg of oxotremorine either 4 hours, 1 day, 2, 3, 4 or 7 days after the test product administration. For each time considerated, the mice were placed on the hot plate one half hour after the oxotremorine administration and the time for the appearance of nociceptive refluxes consistituted by simultaneous licking of the front paws was noted. The maximum time of staying on the hot plate was fixed at 45 seconds and the percentage of animals with a reaction time (RT) less than 40 seconds in spite of oxotremorine administration was determined.

[4] = Acute toxicity study (LD50); design: species or system mice; settings: mouse, in vivo, aqueous solution
Procedure: The acute toxicity of the products was determined intraperitoneally or subcutaneously on mice weighing about 20 g with the LD50 dose being calculated by the method of Litchfield et al [J. Pharmacol. exp. Therap., Vol. 96 (1949), p. 99-133]. The LD50 for the product of Example 1 in aqueous solution was about 100 mg/kg intraperitoneally after 2 days of observation and about 500 mg/kg subcutaneously after 5 days of observation.

[5] = 50 mg/kg s.c. aqueous solution, after 4 h
[6] = 50 mg/kg s.c. aqueous solution, after 1 d
[7] = 100 mg/kg s.c. aqueous solution, after 4 h
[8] = 100 mg/kg s.c. aqueous solution, after 1 d

Compound: OCCN1C2CCC1CC(=C1c3ccccc3CSc3ccccc31)C2 (racemic) [Example 1, dl N-(β-hydroxyethyl)-11-(3'-nortropylidene)-6,11-dihydrodibenzo(b,e)thiepine hydrochloride]
- ED50 ([1]; read-out: ED50 for parasympathomimetic reactions (salivation and lacrymation)): 1 to 2 mg/kg
- ED50 ([1]; read-out: ED50 for trembling): 1 mg/kg
- anticholinergic activity (in words) ([1]; antitremorine test, i.p.): important anticholinergic activity
- % inhibition of reactions: L (lacrymation) [2, 5]: 100%
- % inhibition of reactions: S (salivation) [2, 5]: 100%
- % inhibition of reactions: T (trembling) [2, 5]: 100%
- % inhibition of reactions: L (lacrymation) [2, 6]: 0%
- % inhibition of reactions: S (salivation) [2, 6]: 0%
- % inhibition of reactions: T (trembling) [2, 6]: 0%
- % inhibition of reactions: L (lacrymation) [2, 7]: 100%
- % inhibition of reactions: S (salivation) [2, 7]: 100%
- % inhibition of reactions: T (trembling) [2, 7]: 100%
- % inhibition of reactions: L (lacrymation) [2, 8]: 0%
- % inhibition of reactions: S (salivation) [2, 8]: 0%
- % inhibition of reactions: T (trembling) [2, 8]: 0%
- % of animals with a RT less than 40 seconds [3, 5]: 100%
- % of animals with a RT less than 40 seconds [3, 6]: 10%
- % of animals with a RT less than 40 seconds [3, 7]: 100%
- % of animals with a RT less than 40 seconds [3, 8]: 20%
- antagonistic activity against antinociceptive activity of oxotremorine (in words) ([3]; s.c., mice, Table III): important antagonistic activity against antinociceptive activity of oxotremorine which is manifested for several hours
- LD50 at 48 h ([4]; ip, after 2 days of observation): ~100 mg/kg
- LD50 at 120 h ([4]; sc, after 5 days of observation): ~500 mg/kg
